In US20240246981A1, “[…] DERIVATIVES AS INHIBITORS OF […]-PEPTIDE CYCLOTRANSFERASE AND […]-PEPTIDE CYCLOTRANSFERASE LIKE PROTEIN” (Boehringer Ingelheim International GmbH, priority 2022, published 2024):
Where two headings read alike, the source gives them in different places.

What was measured:
QPCT = QPCT (Homo sapiens (Human), UniProt Q16769); assay: Assay A: biochemical QPCT activity assay (MALDI-TOF MS); conditions: read-out: Inhibition of QPCT: IC50
Protocol: (§1) QPCT or QPCTL dependent conversion of N-terminal glutamine to pyroglutamate of CD47 was monitored via MALDI-TOF MS. Test compounds were dissolved in 100% DMSO and serially diluted into clear 1,536-well microtiter plates. Enzymatic reactions were set up in assay buffer containing 20 mM Tris pH 7.5, 0.1 mM TCEP, 0.01% BSA, and 0.001% Tween20. […] The plates were incubated for 10 min in a humidified incubator at 24° C. Subsequently, 2.5 μL of CD47 peptide substrate surrogate (^19[…]^33) was added to each well (final concentration: 10 μM for QPCTL/20 μM for QPCT). The plates were mixed for 30 sec at 1,000 rpm and subsequently incubated for 40 min in a humidified incubator at 24° C. […] The plates were sealed with an adhesive foil, mixed for 30 s at 1,000 rpm and stored at room temperature until preparation of the MALDI target plates. […] QPCT or QPCTL activity was monitored by calculating the ratio between product and internal standard signals followed by normalization to high (100% activity) and low (0% activity) controls. Determination of compound potencies was obtained by fitting the dose-response data to a four-parameter logistical equation.

[1] = system: SIRPα signalling induced by Raji cells; assay: Assay B: SIRPα signalling assay using Raji cells; type: cell-based, human
Protocol: Bioassay reagent 1 of the PathHunter Bioassay detection kit (DiscoverX 93-0001) was added to each well of the plate using a multichannel pipette followed by a 15 min incubation at room temperature. Afterwards bioassay reagent 2 was added followed by 60 min incubation at room temperature (incubation in the dark).
(§2) The analysis of the data was performed using the luminescence signal generated by beta-galactosidase in the PathHunter reporter cell line. The luminescence measurement was done using a Pherastar Multi-Mode Reader.

Caco-2 cells = assay: Assay C: permeability in CACO-2 cells; type: in vitro ADME; conditions: prior art compounds, Table 8; for Permeability A-B: Caco-2, apical to basolateral
Protocol: (§3) Compounds are dissolved in appropriate solvent (like DMSO, 1-20 mM stock solutions). […] The transport solution (TL) is applied to the apical or basolateral donor side for measuring A-B or B-A permeability (3 filter replicates), respectively. Samples are collected at the start and end of experiment from the donor and at various time intervals for up to 2 hours also from the receiver side for concentration measurement by HPLC-MS/MS or scintillation counting. Sampled receiver volumes are replaced with fresh receiver solution.

[2] = system: SIRPα signalling induced by A549 cells; assay: Assay B: SIRPα signalling assay using A549 cells; type: cell-based, human
Protocol: Two cell types are independently used: the Raji cell line (lymphoblastlike human cell line derived from B lymphocytes from a Burkitt's lymphoma patient in 1963) and A549 cells (adenocarcinomic human alveolar basal epithelial cells).
Test compounds were dissolved in 100% DMSO and serially diluted into a white 384-well microtiter cell culture plate (PerkinElmer #60076780 in case of Raji assay; PDL-coated plates Greiner #781945 in case of A549 assay). 5000 Raji cells (ATCC #CC86) or 5000 A549 cells (ATCC #CCL-185) in Assay Complete Cell Plating reagent 30 (DiscoverX 93-0563R30B) were added per well. The assay plate was incubated for 48 h at 37° C., 95% humidity and 5% CO2. 15000 reporter cells (Jurkat PathHunter SIRPα V1, DiscoverX #93-1135C19) were added to each well, and the plate was incubated for 5 h at 37° C., 95% humidity and 5% CO2. Bioassay reagent 1 of the PathHunter Bioassay detection kit (DiscoverX 93-0001) was added to each well of the plate using a multichannel pipette followed by a 15 min incubation at room temperature. Afterwards bioassay reagent 2 was added followed by 60 min incubation at room temperature (incubation in the dark).
as §2, with “Reader. Dose-response curves & IC50 data were calculated with 4-parameter sigmoidal dose response formula.” for “Reader.”

QPCTL = QPCTL (Homo sapiens (Human), UniProt Q9NXS2); assay: Assay A: biochemical QPCTL activity assay (MALDI-TOF MS); conditions: read-out: Inhibition of QPCTL: IC50
Protocol: as §1

[3] = Assay C: permeability in CACO-2 cells; type: in vitro ADME; conditions: human, pH 7.2, compounds of the invention, Table 7
Protocol: as §3

[4] = prior art compounds, Table 5, read-out: Inhibition of SIRPα signalling induced by Raji cells: IC50
[5] = prior art compounds, Table 5, read-out: Inhibition of SIRPα signalling induced by A549 cells: IC50
[6] = compounds of the invention, Table 2
[7] = Homo sapiens, compounds of the invention, Table 4, read-out: Inhibition of SIRα signalling induced by Raji cells: IC50
[8] = Homo sapiens, compounds of the invention, Table 4, read-out: Inhibition of SIRα signalling induced by A549 cells: IC50

QPCTL, sequence (Q9NXS2 whole entry): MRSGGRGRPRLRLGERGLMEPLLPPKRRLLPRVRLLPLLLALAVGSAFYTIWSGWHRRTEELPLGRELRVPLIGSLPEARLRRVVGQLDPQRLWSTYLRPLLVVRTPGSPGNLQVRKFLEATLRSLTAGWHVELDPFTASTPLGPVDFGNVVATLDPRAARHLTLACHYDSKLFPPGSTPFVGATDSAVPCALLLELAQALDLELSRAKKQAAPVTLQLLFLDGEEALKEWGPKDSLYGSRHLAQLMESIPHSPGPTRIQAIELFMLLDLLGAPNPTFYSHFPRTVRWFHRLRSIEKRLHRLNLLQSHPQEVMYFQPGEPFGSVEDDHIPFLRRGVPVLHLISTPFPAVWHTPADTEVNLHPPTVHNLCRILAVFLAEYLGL
QPCT, sequence (Q16769 29-361): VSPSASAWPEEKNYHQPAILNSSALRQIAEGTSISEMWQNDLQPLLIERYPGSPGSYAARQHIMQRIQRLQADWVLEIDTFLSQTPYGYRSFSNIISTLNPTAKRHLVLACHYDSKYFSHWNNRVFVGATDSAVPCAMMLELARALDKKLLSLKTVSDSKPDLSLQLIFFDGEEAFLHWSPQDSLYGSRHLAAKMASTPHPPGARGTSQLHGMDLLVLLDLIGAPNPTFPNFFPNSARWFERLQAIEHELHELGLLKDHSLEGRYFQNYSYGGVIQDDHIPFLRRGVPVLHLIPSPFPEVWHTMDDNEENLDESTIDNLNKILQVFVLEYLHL

IC50 (QPCT; prior art compounds, Table 3) [nM] | IC50 [1, 4] [nM] | Permeability A-B (Caco-2 cells) | efflux ratio (Caco-2 cells; Caco-2) | IC50 [2, 5] [nM] | IC50 (QPCTL; prior art compounds, Table 3) [nM] | IC50 (QPCT; [6]) [nM] | IC50 [1, 7] [nM] | Papp A→B ([3]; Caco-2, apical to basolateral) [×10⁻⁶ cm/s] | efflux ratio ([3]; Caco-2) | IC50 [2, 8] [nM] | IC50 (QPCTL; [6]) [nM] | Papp A→B at 2 h ([3]; Caco-2, apical to basolateral) [×10⁻⁶ cm/s] | efflux ratio at 2 h ([3]; Caco-2) | SMILES
1710 | 3240 | 68 10^−6 cm/s | 0.5 | 3060 | 111 | – | – | – | – | – | – | – | – | Nc1ncc(C2CCN(c3ncccc3-c3ccc(F)nc3)CC2)s1 [compound 1094, reference compound]
– | – | – | – | – | – | 2 | 79 | 14 | 2.4 | 74 | 5 | – | – | Cn1cnnc1C1(F)CCN(c2c(C#N)cccc2-c2cnn3ncccc23)CC1 [compound 70]
– | – | – | – | – | – | 4 | 70 | – | 1.8 | 80 | 3 | – | – | Cn1cnnc1C1(F)CCN(c2c(C#N)cccc2-c2cnc(F)cc2Cl)CC1 [compound 85]
– | – | – | – | – | – | 3 | 13 | 3.3 | 14.5 | 9 | 1 | – | – | Cn1cnnc1C1(F)CCN(c2c(C#N)cccc2-c2cnc3nnn(Cc4ccccc4)c3c2)CC1 [compound 63]
– | – | – | – | – | – | 24 | 229 | 5.3 | 7.4 | 58 | 6 | – | – | Cn1cnnc1C1CCN(c2c(C#N)cccc2-c2cccnc2)CC1 [compound 67]
– | – | – | – | – | – | 3 | 29 | 50 | 0.7 | 7 | 1 | – | – | Cn1cnnc1C1(F)CCN(c2c(C#N)cccc2-c2ccc(F)nc2)CC1 [compound 56]
– | – | – | – | – | – | 8 | 746 | 0.4 | 34.1 | 619 | 2 | – | – | Cn1cnnc1C1(F)CCN(c2c(C#N)cccc2-c2cnc(=O)n(Cc3ccccc3)c2)CC1 [compound 59]
– | – | – | – | – | – | 1 | 13 | 18 | 1.6 | 23 | 1 | – | – | Cn1cnnc1C1(F)CCN(c2c(C#N)cccc2-c2cnc3nn(C(C)(C)C)c(Cl)c3c2)CC1 [compound 86]
– | – | – | – | – | – | 3 | 16 | 40 | 0.7 | 22 | 2 | – | – | Cn1cnnc1C1(F)CCN(c2c(C#N)cccc2-c2cnn3nc(-c4cccc(Cl)c4)ccc23)CC1 [compound 79]
– | – | – | – | – | – | 3 | 81 | 35 | 1.3 | 22 | 1 | – | – | COc1cc(-c2cccc(C#N)c2N2CCC(F)(c3nncn3C)CC2)cnc1F [compound 53]
– | – | – | – | – | – | 3 | 63 | 41 | 1.6 | 17 | 2 | – | – | Cc1cc(-c2cccc(C#N)c2N2CCC(F)(c3nncn3C)CC2)cnc1F [compound 82]

Further lines, the compound ahead of its results:

SMILES | IC50 (QPCT; prior art compounds, Table 3) [nM] | IC50 [1, 4] [nM] | Permeability A-B (Caco-2 cells) | efflux ratio (Caco-2 cells; Caco-2) | IC50 [2, 5] [nM] | IC50 (QPCTL; prior art compounds, Table 3) [nM] | IC50 (QPCT; [6]) [nM] | IC50 [1, 7] [nM] | Papp A→B ([3]; Caco-2, apical to basolateral) [×10⁻⁶ cm/s] | efflux ratio ([3]; Caco-2) | IC50 [2, 8] [nM] | IC50 (QPCTL; [6]) [nM] | Papp A→B at 2 h ([3]; Caco-2, apical to basolateral) [×10⁻⁶ cm/s] | efflux ratio at 2 h ([3]; Caco-2)
Cn1cnnc1C1CCN(c2c(C#N)cccc2-c2cnc3nc[nH]c3c2)CC1 [compound 33] | – | – | – | – | – | – | 6 | 501 | < 0.1 | > 27 | 210 | 1 | – | –
Cn1cnnc1C1(F)CCN(c2c(C#N)cccc2-c2ccnnc2)CC1 [compound 52] | – | – | – | – | – | – | 3 | 67 | 15 | 1.1 | 16 | 2 | – | –
Cn1cnnc1C1CCN(c2c(C#N)cccc2-c2cncc(C3CCCCO3)c2)CC1 (centres unmarked) [compound 39] | – | – | – | – | – | – | 29 | 133 | 10 | 5.1 | 18 | 5 | – | –
Cn1cnnc1C1CCN(c2c(C#N)cccc2-c2cnc3nn(C(C)(C)C)cc3c2)CC1 [compound 50] | – | – | – | – | – | – | 1 | 21 | 0.5 | 75.5 | 33 | 1 | – | –
COc1cc(-c2cccc(C#N)c2N2CCC(c3nncn3C)CC2)cnn1 [compound 48] | – | – | – | – | – | – | 22 | 446 | 1.1 | 21.8 | 674 | 7 | – | –
Cn1cnnc1C1CCN(c2c(C#N)cccc2-c2cnc3c(c2)NCCO3)CC1 [compound 24] | – | – | – | – | – | – | 56 | 368 | 1 | 34 | 177 | 14 | – | –
COc1cncc(-c2cccc(C#N)c2N2CCC(c3nncn3C)CC2)c1 [compound 16] | – | – | – | – | – | – | 86 | 625 | 4.5 | 12.2 | 332 | 22 | – | –
Cn1cnnc1C1CCN(c2c(C#N)cccc2-c2cncc(F)c2)CC1 [compound 17] | – | – | – | – | – | – | 77 | 1170 | 7.3 | 7.4 | 199 | 15 | – | –
Cc1ccncc1-c1cccc(C#N)c1N1CCC(c2nncn2C)CC1 [compound 8] | – | – | – | – | – | – | 31 | 257 | 3.9 | 9.5 | 348 | 6 | – | –
Cc1cc(C)n(-c2cncc(-c3cccc(C#N)c3N3CCC(c4nncn4C)CC3)c2)n1 [compound 51] | – | – | – | – | – | – | 8 | 148 | 3.4 | 12.9 | 52 | 2 | – | –
Cc1cc(F)ncc1-c1cccc(C#N)c1N1CCC(c2nncn2C)CC1 [compound 4] | – | – | – | – | – | – | 12 | 88 | 16 | 4.1 | 13 | 2 | – | –
Cn1cnnc1C1CCN(c2c(C#N)cccc2-c2cncnc2)CC1 [compound 13] | – | – | – | – | – | – | 52 | 782 | 1.6 | 11.9 | 165 | 15 | – | –
Cn1cnnc1C1CCN(c2c(C#N)cccc2-c2cnc(F)c(OC(F)(F)F)c2)CC1 [compound 31] | – | – | – | – | – | – | 71 | 244 | 39 | 2.2 | 135 | 9 | – | –
Cn1cnnc1C1CCN(c2c(C#N)cccc2-c2cnc3n[nH]cc3c2)CC1 [compound 26] | – | – | – | – | – | – | 24 | 427 | – | – | 382 | 5 | 0.4 | 48.6
Cn1cnnc1C1CCN(c2c(C#N)cccc2-c2cnc(F)c(Cl)c2)CC1 [compound 42] | – | – | – | – | – | – | 24 | 105 | 36 | 2 | 72 | 4 | – | –
Cn1cnnc1C1CCN(c2ncccc2-c2ccc(F)nc2)CC1 [SEN177, reference compound] | – | 1360 | 11.0 10^−6 cm/s | – | 214 | – | – | – | – | – | – | – | – | –
